The values that follow are results of earlier work, collected in US20190230969A1, “COMPOSITION OF PURIFIED SOLUBLE MANNANS FOR DIETARY SUPPLEMENTS AND METHODS OF USE THEREOF” (priority 2010, published 2019).

In one data set the test system is patients. The following applies: in vivo.
For data set [1], the system named is normal and castrated rats. The settings on record: 10 mg/kg subcutaneously biweekly, 4 weeks.

SMILES strings stand for the structures.

With `C[C@H]1O[C@H](O[C@H]2[C@H](O)[C@@H](O)[C@@H](O[C@H]3[C@H](O)[C@@H](O)C(O)O[C@@H]3CO)O[C@@H]2CO)[C@H](O)[C@@H](O)[C@@H]1N[C@H]1C=C(CO)[C@@H](O)[C@H](O)[C@H]1O` (some centres unmarked) [acarbose], the “gastrointestinal disturbances (flatulence, abdominal distension, borborygmus, diarrhea)” value in the data set with patients is on record as “High incidence of gastrointestinal disturbances”.

In the case of `C[C@]12CC[C@H]3[C@@H](CCC4=CC(=O)CC[C@@]43C)[C@@H]1CC[C@@H]2O` [testosterone], the “effect on BUN and testosterone levels” value in data set [1] is “increases”.
